How the values were obtained:
[1] = system: c-Myc (Pu22) (DNA, G4) TGAGGGTGGGTAGGGTGGGTAA; experiment: thiazole orange displacement (FID); settings: 140 mM KCl, 20 mM Na cacodylate; pH 7, RT, 10% DMSO; 0.5 μM TO displaced, 0.5 μM DNA
[2] = system: c-Myc (Pu22) (DNA, G4) TGAGGGTGGGTAGGGTGGGTAA; experiment: 1H NMR; settings: 70 mM KCl, 25 mM KPi; pH 7, 298 K, 10% DMSO-d6, 0.1 mM DNA
[3] = system: FAM-Pu22 (DNA, G4) TGAGGGTGGGTAGGGTGGGTAA; experiment: microscale thermophoresis; settings: 150 mM KCl; 10 mM Tris-HCl, pH 7.4
[4] = system: FAM-Pu22 (DNA, G4) TGAGGGTGGGTAGGGTGGGTAA; experiment: fluorescence intensity titration of labelled DNA; settings: 150 mM KCl; 10 mM Tris-HCl, pH 7.4, RT, 2-3% DMSO, 50 nM DNA
[5] = system: c-Myc (Pu22) (DNA, G4) TGAGGGTGGGTAGGGTGGGTAA; experiment: 1H NMR titration; settings: 70 mM KCl, 25 mM KPi; pH 7, 298 K, 10% DMSO-d6, 0.1 mM DNA
[6] = system: dsDNA 24bp (FAM-duplex) (DNA, duplex) CGCGAATTCGCGCGCGAATTCGCG; experiment: microscale thermophoresis; settings: 150 mM KCl; 10 mM Tris-HCl, pH 7.4

| SMILES | DC50 FID [1] | binding [2] | K D MST [3] [µM] | K D FAM [4] [µM] | binding [5] | Kd [6] [µM] |
| --- | --- | --- | --- | --- | --- | --- |
| NCCNCCNCCNCCNCc1c[nH]c2ncccc12 | 16.63 ± 1.93 µM |  |  |  |  |  |
| c1cc2c(cc1CNCCN1CCCC1)OCO2 | 16.11 ± 1.33 µM |  |  |  |  |  |
| O=[N+]([O-])c1ccc2c(c1)c(CNCCN1CCCC1)cn2CCCN1CCCC1 | 3.30 ± 0.86 µM |  | 1.30 ± 0.21 | 2.81 ± 0.37 | yes | 32.3 ± 1.69 |
| NCCNCCNCCNCCNCc1n[nH]c2ccccc12 | 15.63 ± 1.08 µM |  |  |  |  |  |
| NCCNCCNCCNCCNCc1ccc2c(c1)OCO2 | 18.11 ± 1.69 µM |  |  |  |  |  |
| CN(C)Cc1c[nH]c2ccc([N+](=O)[O-])cc12 | 19.11 ± 0.88 µM |  | 13.22 ± 0.80 | 15.21 ± 1.93 |  |  |
| O=[N+]([O-])c1ccc2[nH]cc(CNCCN3CCCC3)c2c1 | 6.81 ± 0.9 µM | yes | 5.52 ± 0.61 | 7.53 ± 0.93 |  |  |

Continued, values first:

| DC50 FID [1] | binding [2] | K D MST [3] [µM] | K D FAM [4] [µM] | binding [5] | Kd [6] [µM] | SMILES |
| --- | --- | --- | --- | --- | --- | --- |
| 3.83 ± 0.11 µM | weak | 2.21 ± 0.89 | 6.29 ± 0.71 |  |  | CN(C)Cc1c[nH]c2ccc(N)cc12 |
| 3.71 ± 0.32 µM | weak | 2.32 ± 0.41 | 6.30 ± 0.63 |  |  | Cn1ccc2cc(N)ccc21 |
| 14.53 ± 0.61 µM |  | 17.18 ± 0.54 | 12.32 ± 0.94 |  |  | Cc1cc2cc(N)ccc2n1C |
| 6.31 ± 0.43 µM |  | 2.86 ± 0.33 | 7.12 ± 0.45 |  | 18.0 ± 1.33 | Nc1ccc2c(ccn2CCCN2CCCC2)c1 |
| 19.12 ± .92 µM |  | 15.11 ± 0.30 | 16.87 ± 1.58 |  |  | c1ccc2c(c1)ccn2CCCN1CCCC1 |
| 5.01 ± 0.15 µM | yes | 1.49 ± 0.12 | 2.43 ± 0.29 |  | 38.1 ± 2.39 | O=[N+]([O-])c1ccc2c(ccn2CCCN2CCCC2)c1 |

— PMC8252724 (2021)
